The target in data set [1] is T1, OR10J5 (Homo sapiens, UniProt Q8NHC4).
T1 construct: Flag; Rho (rhodopsin-derived tag); expressed in transfected cells
T1 sequence (Q8NHC4 1-309): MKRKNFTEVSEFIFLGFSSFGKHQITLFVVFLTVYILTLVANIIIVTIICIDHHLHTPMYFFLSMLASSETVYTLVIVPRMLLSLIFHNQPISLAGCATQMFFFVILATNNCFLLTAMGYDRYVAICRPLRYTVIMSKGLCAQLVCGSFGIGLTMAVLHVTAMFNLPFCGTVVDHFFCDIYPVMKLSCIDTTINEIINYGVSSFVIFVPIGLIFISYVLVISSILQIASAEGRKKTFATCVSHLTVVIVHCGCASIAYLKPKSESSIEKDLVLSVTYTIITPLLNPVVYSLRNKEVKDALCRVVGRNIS
Description: LYRAL® dose-response with a steady concentration of test compound (EC50-fold shift). The format is cell-based. Conditions: LYRAL® + steady concentration of compound vs LYRAL® alone. The protocol: (§1) A dose response curve showing the activation of OR10J5 in response to the floral muguet compound 3-(4-hydroxy-4-methylpentyl)cyclohex-3-ene-1-carbaldehyde, 4-(4-hydroxy-4-methylpentyl)cyclohex-3-ene-1-carbaldehyde or a mixture thereof (sold under the tradename LYRAL®, hereinafter referred to as “LYRAL®”) is shown in FIG. 1. Using a cell-based assay, OR10J5 activity was tested in a HEK293T cell line wherein the endogenous chaperone RTP1 gene has been activated and the odorant receptor chaperone was expressed according to the methods disclosed in International Patent Application Publication No. WO2016/201153 A1. The Flag-Rho-tagged receptor was co-transfected with the olfactory canonical G-protein Golf and was exposed to a binary mixture of a single concentration of LYRAL® and a test compound.
(§2) LYRAL® enhancement specificity was tested on compounds that were structurally similar to enhancers identified. Dose response curves to LYRAL® were obtained in the presence of a steady concentration of a test compound and compared to a dose-response curve of LYRAL® alone. The resulting enhancement was quantified by means of EC50-fold shift (potency increase) and the efficacy span ratio (efficacy increase).
The EC50-fold shift was obtained by dividing the EC50 of LYRAL®+compound by the reference EC50 of LYRAL® alone. […]

For data set [2], the target named is T2, OR10J5 olfactory receptor (Homo sapiens, UniProt Q8NHC4).
T2 construct: Flag; Rho (rhodopsin-derived tag); expressed in transfected cells
T2 sequence (Q8NHC4 1-309): T1 sequence (Q8NHC4 1-309)
Description: Dose-response confirmation of enhancer candidates, alone and with EC20 LYRAL®. The format is cell-based. Conditions: response to LYRAL® raised beyond EC20 without measurable intrinsic activity. The protocol:
as §1
A library of volatile compounds was used to create binary mixtures of each compound with LYRAL® at approximately EC20, a concentration eliciting only approximately 20% of full activity level of OR10J5 by itself. An activation cell-based assay was used for the initial enhancer candidate identification as disclosed in WO2019122236. Single binary mixture-induced receptor activity was detected by measuring the cAMP increase in the cytosol using an HTRF (Homogenous Time-Resolved Fluorescence unit) based kit (CisBio, cAMP dynamic 2 kit, 62AM4PEJ).
The 37 candidates remaining in Table 2 were identified and were tested in two parallel dose-response experiments to confirm the true enhancement properties of the potential candidates. First, a dose-response of each individual candidate was performed to determine if it was an agonist by itself. Second, the same candidate dose-response curve in the presence of EC20 LYRAL® concentration (generating 20% activity on OR10J5) was assessed for activity level increase.

For data set [3], the target named is T1, OR10J5. The data set can be described thus: (+−)-2,5-dimethyl-2-indanmethanol dose-response with a steady concentration of test compound. The format is cell-based. The following applies: OR10J5; for EC50 fold shift of (+−)-2,5-dimethyl-2-indanmethanol: agonist + steady concentration of compound vs agonist alone. On the procedure:
OR10J5 activity enhancement was tested with an additional agonist and with one of the test compounds and conditions described in the Examples above. Dose response curves to (+−)-2,5-dimethyl-2-indanmethanol was obtained in the presence of a steady concentration of the test compound and compared to a dose-response curve of the agonist alone. The resulting enhancement was quantified by means of EC50-fold shift (potency increase) and the efficacy span ratio (efficacy increase) as described above.

Data set [4] has as its target T3, Olfr16 (Mus musculus, UniProt Q62007).
T3 construct: expressed in transfected cells
T3 sequence (Q62007 1-309): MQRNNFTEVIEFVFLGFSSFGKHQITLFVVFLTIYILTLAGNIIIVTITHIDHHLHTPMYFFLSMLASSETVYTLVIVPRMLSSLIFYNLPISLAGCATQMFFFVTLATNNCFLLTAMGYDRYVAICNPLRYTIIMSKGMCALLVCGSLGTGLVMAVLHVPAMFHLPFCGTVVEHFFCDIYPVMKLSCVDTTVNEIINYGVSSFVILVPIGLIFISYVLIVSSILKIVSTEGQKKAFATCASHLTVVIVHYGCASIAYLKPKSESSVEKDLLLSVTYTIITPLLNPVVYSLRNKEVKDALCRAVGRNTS
The data set can be described thus: LYRAL® dose-response with a steady concentration of test compound (EC50-fold shift). It is filed as cell-based. Conditions: Olfr16 (mouse ortholog); LYRAL® + steady concentration of compound vs LYRAL® alone. On the procedure:
as §2
The EC50-fold shift was obtained by dividing the EC50 of LYRAL®+compound by the reference EC50 of LYRAL® alone. The span ratio was obtained by dividing the span of LYRAL®+compound by the reference span of LYRAL® alone.

The target of data set [5] is T1, OR10J5. Description: LYRAL® dose-response with serial enhancer concentrations, allosteric EC50 shift model. It is filed as cell-based. On the procedure:
Functional dose-response experiments were performed to reveal the allosteric nature of the interaction between 3-(1,3-benzodioxol-5-yl)-2-methylpropanal, 3-(4-methylcyclohex-3-en-1-yl)butanal, 2,6-dimethylhept-5-enal and heptanal and OR10J5. The level of enhancement of OR10J5's activation was evaluated at distinct concentrations of each enhancer. Using the same cell-based assay described earlier, dose response curves of OR10J5 to LYRAL® in the presence of serial concentrations of the enhancers spanning from 0 to 600 μM were performed, see FIG. 5. The curves were obtained by applying the simplified Allosteric EC50 shift effect equation (available in Prism7) derived from the ternary complex interaction model. The enhancement levels recorded were not linearly dependent on the concentration of the enhancer, and the following key parameters values for α (the cooperativity factor) and KB (the equilibrium dissociation constant of the enhancer) were obtained from the model for each enhancer: 3-(1,3-benzodioxol-5-yl)-2-methylpropanal, α=6.3 and KB=10 μM; 3-(4-methylcyclohex-3-en-1-yl)butanal, α=7.5 and KB=15 μM; 2,6-dimethylhept-5-enal, α=4.1 and KB=16 μM; and heptanal; α=3.2 and KB=51 μM. α>1 is indicative of positive allosteric modulation.

Data set [6] is described as follows: Odor detection threshold (ODT) forced-choice triangle tests for LYRAL® with background odor. The format is in vivo, human. The following applies: 28 panelists; enhancer at 0.1% vs neutral compound at 7%; main effect of Material p=0.03, interaction p=0.052. On the procedure: Sensitivity of human individuals to LYRAL® was evaluated by performing an odor detection threshold (ODT) test. The ODT test consisted of identifying the concentration for which 50%, preferably 66%, of the panelists are able to determine which of three containers contains the target compound LYRAL® in a series of forced-choice triangle tests. Two tests were performed to calculate the ODT in mixtures containing LYRAL® plus a perceivable background odor of chemically similar molecules a) the enhancer, 3-(4-methylcyclohex-3-en-1-yl)butanal and b) the non-enhancing volatile compound, 3-[(1R)-4-methyl-3-cyclohexen-1-yl]-1-butanol. These two molecules are chemically similar. The perceived intensity of the two background odors was monitored to be isointense to control that the responses recorded answer were intensity independent.
28 panelists were given a series of triangle tests with increasing concentrations of LYRAL® in the presence of 3-(4-methylcyclohex-3-en-1-yl)butanal at a concentration of 0.1%. Within each triangle test, the three samples contained 3-(4-methylcyclohex-3-en-1-yl)butanal at 0.1% and one sample also contained LYRAL®. 28 panelists were given a series of triangle tests with increasing concentration of Lyral® in the presence of 3-[(1R)-4-methyl-3-cyclohexen-1-yl]-1-butanol at a concentration of 7%. […]

`CC(C=O)Cc1ccc2c(c1)OCO2` (stereo not drawn) [3-(1,3-benzodioxol-5-yl)-2-methylpropanal]: the “EC50 fold shift of LYRAL® (potency increase)” value in data set [1] was 9.2 fold; in data set [4] it was 5 fold. Moreover, in data set [2], the “enhancement of OR10J5 LYRAL® activation (true enhancer)” value is given as “potent enhancement”. Also, the “EC50 fold shift of (+−)-2,5-dimethyl-2-indanmethanol” value in data set [3] is on record as 8.6 fold. For the same compound, in data set [3] (within the dynamic range of the dose response), the “efficacy increase (span ratio) of (+−)-2,5-dimethyl-2-indanmethanol” value turned out to be 1.7 fold. Besides, in data set [5], the Kb stood at 10 µM. The “α (cooperativity factor)” value in data set [5] (enhancer 0 to 600 μM, allosteric EC50 shift equation (Prism7), α>1 indicates positive allosteric modulation) came to 6.3.
For `CC1=CC[C@H](C(C)CC=O)CC1` (stereo partly drawn) [3-(4-methylcyclohex-3-en-1-yl)butanal], the “proportion of correct LYRAL® detection responses with increasing LYRAL® concentration” value in data set [6] is recorded as “proportion of correct responses increased at a higher rate”. Also, in data set [2], the “enhancement of OR10J5 LYRAL® activation (true enhancer)” value is “potent enhancement”.
For `O=Cc1ccc2c(c1)OCO2` [benzo[d][1,3]dioxole-5-carbaldehyde, reference compound], the “EC50 fold shift of LYRAL® (potency increase)” value in data set [1] was found to be 1.8 fold; in data set [4], 1.5 fold. For the same compound, in data set [3], the “EC50 fold shift of (+−)-2,5-dimethyl-2-indanmethanol” value came to 2.0 fold.
